Consider one compound from PMC11266321 (EJNMMI Radiopharmacy and Chemistry, 2024).

In data set [1] the test system is Glycine (strychnine site). The class given is binding. The settings on record: 10 µM; radioligand [^3H]Strychine; mean of duplicate.
The target of data set [2] is T1, Adenosine A2 (Homo sapiens, UniProt P29274).
T1 construct: Sekisui Medical (contract laboratory)
Description: Radioligand binding inhibition, Adenosine A2. The settings on record: 10 µM; radioligand [^3H]CGS21680; mean of duplicate. The protocol: (§1) Interaction of MMP with 28 binding sites was examined, including major classes of neurotransmitter receptor, uptake system, and ion channels (Sekisui Medical, Naka, Japan). MMP was tested in all assays at 10 µM. […] Each determination was made in duplicate.
(§2) Test substance concentration : 10 µM, positive substance concentration : 10 µM
(§3) Data are expressed as the mean values of duplicate samples.
(§4) The % inhibition was calculated from “100 – binding ratio”.
(§5) Binding ratio: [(B - N) / (B0 - N)] × 100 (%)
(§6) B: Bound radioactivity in the presence of test substance and positive substance (individual value)
(§7) B0: Total bound radioactivity in the absence of test substance and positive substance (mean value)
(§8) N: Non-specific bound radioactivity (mean value)

Data set [3] concerns the target T2, Adenosine A1 (Homo sapiens, UniProt P30542).
T2 construct: Sekisui Medical (contract laboratory)
The data set can be described thus: Radioligand binding inhibition, Adenosine A1. The conditions noted are these: 10 µM; radioligand [^3H]DPCPX; mean of duplicate. The protocol: as §1, §2, §3, §4, §5, §6, §7, §8

For data set [4], the system named is β-Adrenergic (non-selective). Description: Radioligand binding inhibition, β-Adrenergic. The settings on record: 10 µM; radioligand [^3H]DHA; mean of duplicate. The protocol: (§9) Interaction of MMP with 28 binding sites was examined, including major classes of neurotransmitter receptor, uptake system, and ion channels (Sekisui Medical, Naka, Japan). MMP was tested in all assays at 10 µM. […] 10.2.3 (GraphPad Software, San Diego, CA). Each determination was made in duplicate.
as §2, §3, §4, §5, §6, §7, §8

Data set [5] has as its system Glutamate (NMDA agonist site). The data set can be described thus: Radioligand binding inhibition, Glutamate NMDA agonist site. The settings on record: 10 µM; radioligand [^3H]CGP-39653; mean of duplicate. The protocol:
as §9, §2, §3, §4, §5, §6, §7, §8

Data set [6] relates to GABA A (agonist site). The data set can be described thus: Radioligand binding inhibition, GABA A agonist site. The settings on record: 10 µM; radioligand [^3H]Muscimol; mean of duplicate. The protocol:
as §9, §2, §3, §4, §5, §6, §7, §8

Data set [7] concerns Opiate (non-selective). The data set can be described thus: Radioligand binding inhibition, Opiate. The settings on record: 10 µM; radioligand [^3H]Naloxone; mean of duplicate. The protocol:
as §9, §2, §3, §4, §5, §6, §7, §8

In data set [8] the test system is Glutamate (non-selective). The data set can be described thus: Radioligand binding inhibition, Glutamate non-selective. The conditions noted are these: 10 µM; radioligand [^3H]Glutamic acid; mean of duplicate. The protocol:
as §9, §2, §3, §4, §5, §6, §7, §8

Data set [9] deals with T3, Dopamine D1 (Homo sapiens, UniProt P21728).
T3 construct: Sekisui Medical (contract laboratory)
Description: Radioligand binding inhibition, Dopamine D1. The settings on record: 10 µM; radioligand [^3H]SCH23390; mean of duplicate. The protocol: as §1, §2, §3, §4, §5, §6, §7, §8

The test system of data set [10] is Escherichia coli (WP2uvrA). Description: Ames test (reverse bacterial mutation test), E. coli. The class given is cell-based. The settings on record: with and without S9 mixture, 78.1–5000 µg/plate. The source says: (§10) The MMP was custom synthesized by the Nard Institute (Kobe, Japan) using methods described previously (Toyohara et al. [2020a]). All other chemical reagents were obtained from commercial sources. Male ddY mice were obtained from Japan SLC (Hamamatsu, Japan). Sprague–Dawley rats [Crl: CD(SD)] were obtained from […] (Yokohama, Japan). Animal studies were approved by the Animal Care and Use Committee of the Tokyo Metropolitan Institute for Geriatrics and Gerontology (Approval Nos. 22,015 and 23,007) and Nihon Bioresearch (Hashima, Japan; Approval Nos. 430,085 and 430,086). Acute toxicity studies were performed under the “Revisions of the Guidelines for Single and Repeated Dose Toxicity Studies” (PMDA, 1993). Ames test was performed under the “Guidance on Genotoxicity Testing and Data Interpretation for Pharmaceuticals Intended for Human Use” (PMDA, 2012).
Mutagenicity tests were performed at the Hashima Research Center, Nihon Bioresearch, under non-GLP control. MMP was tested for mutagenicity by the Ames test with four histidine-requiring strains of Salmonella typhimurium (TA98, TA100, TA1535, and TA1537) and one strain of Escherichia coli (WP2uvrA), with and without the S9 mixture, at a dose range of 78.1–5000 µg/plate according to the standard method.
(In general: In the Ames test, an excess of revertant colonies over the control signals mutagenicity.)

Data set [11] has as its system Glutamate (NMDA phencyclidine site). The data set can be described thus: Radioligand binding inhibition, Glutamate NMDA phencyclidine site. The settings on record: 10 µM; radioligand [^3H]MK-801; mean of duplicate. The protocol: as §9, §2, §3, §4, §5, §6, §7, §8
For data set [12], the system named is GABA A (BZ central). Description: Radioligand binding inhibition, GABA A BZ central. The settings on record: 10 µM; radioligand [^3H]Flunitrazepam; mean of duplicate. The protocol: as §9, §2, §3, §4, §5, §6, §7, §8
In data set [13] the test system is Glutamate (Ketamine). The data set can be described thus: Radioligand binding inhibition, Glutamate (Ketamine). The conditions noted are these: 10 µM; radioligand [^3H]Kainic acid; mean of duplicate.
In data set [14] the test system is Sigma (non-selective). Description: Radioligand binding inhibition and competitive inhibition curve, sigma receptor. The protocol:
as §1
Data are expressed as mean values of duplicate samples.
as §2, §3, §4, §5, §6, §7, §8

For data set [15], the system named is Glutamate (AMPA). Description: Radioligand binding inhibition, Glutamate AMPA. The settings on record: 10 µM; radioligand [^3H]AMPA; mean of duplicate. The protocol:
as §9, §2, §3, §4, §5, §6, §7, §8

Data set [16] has as its system Sprague–Dawley rats. Description: Acute toxicity of MMP, single intraperitoneal injection. It is filed as in vivo, rat.
Description: as §10
In Japan, the structure of nonclinical toxicology studies for PET drugs in clinical research is the responsibility of the ethics committee of each institution or the subcommittee of specialities of PET drugs. According to the method used previously for approval of PET drugs for clinical use in our institute (Toyohara et al. [2013], [2016], [2020b]; Sakata et al. [2017]), we performed single-arm acute toxicology studies of the active pharmaceutical ingredient (MMP) and final dose formulation ([^11C]MMP injection). Mutagenicity tests will also be conducted, as there are concerns about stochastic effects on genotoxicity.
Acute toxicity studies were performed at the Hashima Research Center, Nihon Bioresearch, under non-Good Laboratory Practice (GLP) control. Acute toxicity of MMP was tested in Sprague–Dawley rats. MMP at a dose of 3.55 mg/kg body weight (0.71 mg/mL in 10 v/v% dimethyl sulfoxide containing water for injection) was injected intraperitoneally into 5-week-old rats weighing 143–172 g (male, n = 5) and 129–135 g (female, n = 5). The dose of 3.55 mg/kg body weight is the 10,000-fold equivalent of the postulated maximum administration dose (1.85 nmol/0.355 µg/kg body weight) of 740 MBq [^11C]MMP, with the lowest molar activity (Am) of 10 MBq/nmol for humans weighing 40 kg. Rats were observed frequently until 1 h and then at 2, 4, and 6 h after the injection on day 1, and thereafter once daily for 14 days for clinical signs of toxicity. Rats were weighed on days 1, 2, 4, 7, 10, and 14. At the end of the 14-day observation period, the rats were euthanized by exsanguination under isoflurane anaesthesia, and a macroscopic analysis of the autopsy samples was performed.

Where “and” joins values, the source holds several entries; their conditions need not be identical. Equal entries are not always repeated.

In general, IC50 refers to the concentration that inhibits the measured activity by half. Low readings indicate greater potency, high ones weaker potency.

T2 sequence (P30542 whole entry): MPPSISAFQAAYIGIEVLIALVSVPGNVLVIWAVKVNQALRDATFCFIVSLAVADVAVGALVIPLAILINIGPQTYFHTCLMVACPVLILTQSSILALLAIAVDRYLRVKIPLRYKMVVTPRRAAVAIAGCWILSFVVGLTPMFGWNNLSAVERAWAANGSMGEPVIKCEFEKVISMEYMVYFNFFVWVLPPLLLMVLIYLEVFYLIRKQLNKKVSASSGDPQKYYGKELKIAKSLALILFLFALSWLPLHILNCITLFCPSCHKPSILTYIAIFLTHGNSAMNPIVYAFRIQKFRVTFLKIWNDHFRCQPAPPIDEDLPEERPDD
T1 sequence (P29274 whole entry): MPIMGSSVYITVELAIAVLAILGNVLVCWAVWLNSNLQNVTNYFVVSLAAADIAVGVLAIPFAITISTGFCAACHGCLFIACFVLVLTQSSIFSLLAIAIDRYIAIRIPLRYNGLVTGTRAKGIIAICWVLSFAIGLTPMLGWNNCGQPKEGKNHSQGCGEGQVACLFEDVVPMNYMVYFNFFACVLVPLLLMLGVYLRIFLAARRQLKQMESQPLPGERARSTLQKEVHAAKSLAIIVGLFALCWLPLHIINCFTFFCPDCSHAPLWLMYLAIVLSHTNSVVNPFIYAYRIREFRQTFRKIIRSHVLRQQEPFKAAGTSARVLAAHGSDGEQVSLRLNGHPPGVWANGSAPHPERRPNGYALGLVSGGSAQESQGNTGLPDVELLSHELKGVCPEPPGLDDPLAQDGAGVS
T3 sequence (P21728 whole entry): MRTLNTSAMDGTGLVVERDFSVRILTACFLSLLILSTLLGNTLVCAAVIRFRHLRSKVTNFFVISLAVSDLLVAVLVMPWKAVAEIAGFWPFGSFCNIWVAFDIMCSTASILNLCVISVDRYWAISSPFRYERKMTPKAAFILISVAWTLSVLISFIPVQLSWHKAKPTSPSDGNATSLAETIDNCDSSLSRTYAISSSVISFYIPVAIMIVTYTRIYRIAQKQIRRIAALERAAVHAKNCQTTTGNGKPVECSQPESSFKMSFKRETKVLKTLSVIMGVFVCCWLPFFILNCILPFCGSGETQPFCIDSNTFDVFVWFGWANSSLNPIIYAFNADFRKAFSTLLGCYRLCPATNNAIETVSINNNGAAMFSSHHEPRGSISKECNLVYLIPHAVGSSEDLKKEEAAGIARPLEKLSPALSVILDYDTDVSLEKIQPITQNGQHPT

As to `Cc1ccc(CC(C)NC(C)C)cc1` (centres unmarked) [MMP, N-isopropyl-p-methylamphetamine], the “Inhibition ratio (%)” value in [1] is listed as 4.11%; in data set [2] it was 1.64%; in data set [3] it was 3.26%; in data set [4], 32.80%; in data set [5], 4.63%; in data set [6], 3.62%. For the same compound, the “Inhibition ratio (%)” value in [7] was 4.92%; in data set [8], 0.00%; in data set [9], 6.90%; in [11], 0.00%; in data set [12], 2.17%; in data set [13], 11.86%. Further, the “Inhibition ratio (%)” value in [14] (10 µM, radioligand [^3H]DTG, mean of duplicate) is 86% and 85.89%; in data set [15], 5.98%. Moreover, the mutagenic activity entry in data set [10] is “no mutagenic activity”. The compound also had a half-maximal inhibitory concentration (IC50) in data set [14] (competitive inhibition curve, [^3H]DTG, duplicate) of 1100 nM. The “affinity for sigma receptor relative to existing sigma receptor ligand (haloperidol)” value in data set [14] (fraction of the affinity of haloperidol) is on record as “approximately 1/100”. In addition, the “NOAEL as multiple of postulated maximum administration dose” value in data set [16] (740 MBq, Am 10 MBq/nmol, human body weight 40 kg) is listed as 1,600 times. Moreover, the acute toxicity result in data set [16] (rats, 3.55 mg/kg body weight (10,000 times potential maximum clinical dose)) is “No acute toxicity”. In addition, the body weight gain result in [16] (rats, single i.p. 3.55 mg/kg) is reported as “normal gains in body weight”. In addition, the post-mortem macroscopic examination entry in data set [16] (rats, single i.p. 3.55 mg/kg) is on record as “no abnormalities”. Further, in [16] (rats, single i.p. 3.55 mg/kg, 14-day observation), the mortality result is “no mortality”. Besides, the “clinical signs of toxicity” value in data set [16] (rats, single i.p. 3.55 mg/kg, 15-day period) is on record as “no clinical signs of toxicity”.
